Experiment: Storage Stability Test (coating fluid)
Type: physicochemical
Design: key: Excellent: Turbidity or the like derived from crystal precipitation is not present even after storage of coating fluid; Bad: Turbidity or the like derived from precipitation of the charge transport substance is present after storage of coating fluid
Conditions: charge transport layer coating fluid (60 parts substance, 100 parts polycarbonate PD, tetrahydrofuran/toluene 8/2) stored at −5 to 0° C. for 2 months, checked for turbidity
Description: As the binder resin, the polycarbonate resin (Mv=39,200) having a repeating unit represented by the structural formula (PD) was used. Then, 60 parts by mass of the charge transport substance, 100 parts by mass of the binder resin, 2 parts by mass of an antioxidant having a structure represented by the following formula (AOX2), and 0.05 parts by mass of a silicone oil as a leveling agent were dissolved in 540 parts by mass of a mixed solvent of tetrahydrofuran/toluene (mass ratio: 8/2) to prepare a charge transport layer coating fluid for coating fluid storage stability test.
The coating fluid obtained was placed in a glass sealed bottle and stored under the condition of −5 to 0° C. for 2 months. Then, it was checked whether turbidity or the like occurred or not in the coating fluid after storage, thereby evaluating the coating fluid storage stability.
The charge transport substances used in evaluation, the results of stability evaluation, and the criteria for the coating fluid stability are shown in the following Table-6.

Row | Storage stability | Structure (SMILES)
1 | Excellent | CCOc1ccc(N(c2ccc(/C=C/c3ccc(N(c4ccc(C)cc4)c4ccc(C)cc4)cc3)cc2)c2ccc(/C=C/c3ccc(N(c4ccc(C)cc4)c4ccc(C)cc4)cc3)cc2)cc1 [CTM1]
2 | Bad | Cc1ccc(N(c2ccc(C)cc2)c2ccc(/C=C/c3ccc(N(c4ccc(C)cc4)c4ccc(/C=C/c5ccc(N(c6ccc(C)cc6)c6ccc(C)cc6)cc5)cc4)cc3)cc2)cc1 [RCTM1]

Reference: patent publication US9507284B2, “Electrophotographic photoreceptor, electrophotographic photoreceptor cartridge, image-forming apparatus, and triarylamine compound” (MITSUBISHI CHEMICAL CORPORATION, priority 2012, dated 2016)
